Measured values taken from patent publication US10208033B2, “β-carboline, dihydro-β-carboline and tetrahydro-β-carboline alkaloid derivatives and preparation methods same and use in aspects of preventing and treating plant viruses, fungicides and insecticides” (NANKAI UNIVERSITY, priority 2013, dated 2019).
Like-named read-outs stand apart in the source and are kept apart here.

What was measured:
Botrytis cinerea = test: Fungicidal (bactericidal) activity in vitro, PDA colony diameter; type: cell-based; settings: 50 mg/kg
Rhizoctonia cereali = test: as above; type: cell-based; settings: 50 mg/kg
Macrophoma kawatsukai = test: as above; type: cell-based; settings: 50 mg/kg
corn borers = settings: concentration 600 mg/kg
Alternaria solani = test: Fungicidal (bactericidal) activity in vitro, PDA colony diameter; type: cell-based; settings: 50 mg/kg
Rhizoctonia solani = test: as above; type: cell-based; settings: 50 mg/kg
Phytophthora capsici = test: as above; type: cell-based; settings: 50 mg/kg
mosquito larvae = test: whole plant or invertebrate; settings: 24 h
Procedure, shortened: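 Early fourth-instar Culex pipiens pallens larvae from an indoor colony, 10 per beaker, exposed to test compound at 5 ppm in water, diluted from a 1000 ppm acetone mother solution. Blank: water containing 0.5 mL test solvent.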

[1] = test system: tobacco mosaic virus (TMV); test: Anti-TMV in vivo inactivation; parameters: species or system tobacco mosaic virus (host Nicotiana tabacum L.cv.Xanthi NN)
Cercospora arachidicola = test: Fungicidal (bactericidal) activity in vitro, PDA colony diameter; type: cell-based; settings: 50 mg/kg
cotton bollworms = test: whole plant or invertebrate; settings: concentration 600 mg/kg
Experimental: Experimental method of cotton bollworms: feed and drug mixing method: measure 3 mL of prepared solution and add it to about 27 g of newly prepared feed, thereby obtaining needed concentration through dilution by 10 times.

potato late blight = test: microbe, parasite or virus in culture; type: cell-based
[2] = test system: tobacco mosaic virus (TMV); test: Anti-TMV in vivo therapeutic effect; parameters: species or system tobacco mosaic virus (host Nicotiana tabacum L.cv.Xanthi NN)
[3] = test system: Colletotrichum orbiculare; test: Fungicidal (bactericidal) activity in vitro, PDA colony diameter; type: cell-based; settings: 50 mg/kg
Fusarium graminearumt = test: microbe, parasite or virus in culture; type: cell-based; settings: 50 mg/kg
[4] = test system: tobacco mosaic virus (TMV); test: Anti-TMV in vitro effect (half-leaf soaking); type: cell-based, tobacco mosaic virus (host Nicotiana tabacum L.cv.Xanthi NN)
Fusarium fujikuroi = test: Fungicidal (bactericidal) activity in vitro, PDA colony diameter; type: cell-based; settings: 50 mg/kg
Sclerotinia scleotiorum = test: as above; type: cell-based; settings: 50 mg/kg
[5] = test system: tobacco mosaic virus (TMV); test: Anti-TMV in vivo protective effect; parameters: species or system tobacco mosaic virus (host Nicotiana tabacum L.cv.Xanthi NN)
Bipolaria maydis = test: organism not typed; type: cell-based; settings: 50 mg/kg
armyworms = type: in vivo; settings: concentration 600 mg/kg
cucumber fusarium wilt = test: Fungicidal (bactericidal) activity in vitro, PDA colony diameter; type: cell-based

Compound | Bactericidal activity (%) Botrytis cinerea (Botrytis cinerea) [%] | Bactericidal activity (%) Rhizoctonia cereali (Rhizoctonia cereali) [%] | Bactericidal activity (%) Macrophoma kawatsukai (Macrophoma kawatsukai) [%] | Corn borer Mortality (%) (corn borers) | Bactericidal activity (%) Alternaria solani (Alternaria solani) [%] | Bactericidal activity (%) Rhizoctonia solani (Rhizoctonia solani) [%] | Bactericidal activity (%) Phytophthora capsici (Phytophthora capsici) [%] | Mosquito larvae Mortality (%) (mosquito larvae; concentration 10 mg/kg) | Relative inhibition rate (%) In vivo inactivation ([1]; treatment dose 100 μg/mL) [%] | Relative inhibition rate (%) In vivo inactivation ([1]; treatment dose 500 μg/mL) [%] | Bactericidal activity (%) Cercospora arachidicola (Cercospora arachidicola) [%] | Cotton bollworm Mortality (%) (cotton bollworms) | Bactericidal activity (%) potato late blight (potato late blight) [%] | Relative inhibition rate (%) In vivo therapy ([2]; treatment dose 100 μg/mL) [%] | Relative inhibition rate (%) In vivo therapy ([2]; treatment dose 500 μg/mL) [%] | Bactericidal activity (%) Colletotrichum orbiculare [3] [%] | Bactericidal activity (%) Fusarium graminearumt (Fusarium graminearumt) [%] | Relative inhibition rate (%) In vitro activity ([4]; treatment dose 100 μg/mL) [%] | Relative inhibition rate (%) In vitro activity ([4]; treatment dose 500 μg/mL) [%] | Bactericidal activity (%) Fusarium fujikuroi (Fusarium fujikuroi) [%] | further results
C[C@@H]1N[C@H](C(=O)NN=Cc2ccco2)Cc2c1[nH]c1ccccc21 [Ic-18, (1S, 3S)—N′-(furan-2-methylene)-1-methyl-2,3,4,9-tetrahydropyridino [3,4-b] indol-3-formylhydrazine] | 81.8 | 68.6 | 69.4 | 15 | 35.0 | 32.9 | 39.5 | 25 | 18.2 | 54.6 | 52.9 | 20 | 36.0 | 9.3 | 44.2 | 33.3 | 6.9 | 15.4 | 48.8 | 28.6 | Bactericidal activity (%) Sclerotinia scleotiorum (Sclerotinia scleotiorum): 64.7%; Relative inhibition rate (%) In vivo protection ([5]; treatment dose 100 μg/mL): 11.5%; Relative inhibition rate (%) In vivo protection ([5]; treatment dose 500 μg/mL): 47.5%; Bactericidal activity (%) Bipolaria maydis (Bipolaria maydis): 20.0%; Armyworm Mortality (%) (armyworms): 10%; Bactericidal activity (%) Cucumber fusarium wilt (cucumber fusarium wilt): 11.5%
C[C@@H]1N[C@H](C(=O)NN=Cc2ncc[nH]2)Cc2c1[nH]c1ccccc21 [Ic-21, (1S, 3S)—N′-(imidazole-2-methylene)-1-methyl-2,3,4,9-tetrahydropyridino [3,4-b] indol-3-formylhydrazine] | 36.4 | 64.7 | 97.2 | 35 | 15.0 | 15.8 | 18.4 | 85 | 21.3 | 49.6 | 47.1 | 45 | 24.0 | 12.6 | 45.3 | 25.9 | 27.6 | 0 | 42.4 | 28.6 | Bactericidal activity (%) Sclerotinia scleotiorum (Sclerotinia scleotiorum): 35.3%; Relative inhibition rate (%) In vivo protection ([5]; treatment dose 100 μg/mL): 18.5%; Relative inhibition rate (%) In vivo protection ([5]; treatment dose 500 μg/mL): 48.1%; Bactericidal activity (%) Bipolaria maydis (Bipolaria maydis): 12.0%; Armyworm Mortality (%) (armyworms): 40%; Bactericidal activity (%) Cucumber fusarium wilt (cucumber fusarium wilt; 50 mg/kg): 34.6%
C/C=C/C=NNC(=O)[C@@H]1Cc2c([nH]c3ccccc23)[C@H](C)N1 [Ic-22, (1S, 3S)—N′-((E)-but-2-enylidene)-1-methyl-2,3,4,9-tetrahydropyridino [3,4-b] indol-3-formylhydrazine] | 40.9 | 64.7 | 52.8 | 50 | 30.0 | 6.6 | 31.6 | 85 | 8.5 | 47 | 29.4 | 20 | 32.0 | 0 | 33.2 | 22.2 | 20.7 | 0 | 35.2 | 14.3 | Bactericidal activity (%) Sclerotinia scleotiorum (Sclerotinia scleotiorum): 41.2%; Relative inhibition rate (%) In vivo protection ([5]; treatment dose 100 μg/mL): 6.7%; Relative inhibition rate (%) In vivo protection ([5]; treatment dose 500 μg/mL): 37.1%; Bactericidal activity (%) Bipolaria maydis (Bipolaria maydis): 36.0%; Armyworm Mortality (%) (armyworms): 40%; Bactericidal activity (%) Cucumber fusarium wilt (cucumber fusarium wilt; 50 mg/kg): 26.9%
CCCC=NNC(=O)[C@@H]1Cc2c([nH]c3ccccc23)[C@H](C)N1 [Ic-23, (1S, 3S)—N′-butylidene-1-methyl-2,3,4,9-tetrahydropyridino [3,4-b] indol-3-formylhydrazine] | 9.1 | 43.1 | 69.4 | 10 | 45.0 | 6.6 | 5.3 | 35 | 13.4 | 47.1 | 17.6 | 10 | 20.0 | 10.4 | 41.3 | 14.8 | 6.9 | 7.8 | 32.6 | 0.0 | Bactericidal activity (%) Sclerotinia scleotiorum (Sclerotinia scleotiorum): 64.7%; Relative inhibition rate (%) In vivo protection ([5]; treatment dose 100 μg/mL): 11.3%; Relative inhibition rate (%) In vivo protection ([5]; treatment dose 500 μg/mL): 40.5%; Bactericidal activity (%) Bipolaria maydis (Bipolaria maydis): 12.0%; Armyworm Mortality (%) (armyworms): 15%; Bactericidal activity (%) Cucumber fusarium wilt (cucumber fusarium wilt; 50 mg/kg): 19.2%
CCCCCCCC=NNC(=O)[C@@H]1Cc2c([nH]c3ccccc23)[C@H](C)N1 [Ic-24, (1S, 3S)—N′-octadien-1-methyl-2,3,4,9-tetrahydropyridino [3,4-b] indol-3-formylhydrazine] | 44.4 | 29.7 | 24.2 | 50 | 19.0 | 22.2 | 18.2 | 100 | 32.8 | 73.4 | 36.4 | 20 | 17.4 | 31.7 | 70.9 | 32.0 | 61.5 | 23.2 | 61.3 | 35.3 | Mosquito larvae Mortality (%) (mosquito larvae; concentration 5 mg/kg): 10%; Bactericidal activity (%) Sclerotinia scleotiorum (Sclerotinia scleotiorum): 46.2%; Relative inhibition rate (%) In vivo protection ([5]; treatment dose 100 μg/mL): 27.3%; Relative inhibition rate (%) In vivo protection ([5]; treatment dose 500 μg/mL): 59.6%; Bactericidal activity (%) Bipolaria maydis (Bipolaria maydis): 36.0%; Armyworm Mortality (%) (armyworms): 45%; Bactericidal activity (%) Cucumber fusarium wilt (cucumber fusarium wilt; 50 mg/kg): 9.1%
C[C@@H]1N[C@H](C(=O)NN=CC2CCCCC2)Cc2c1[nH]c1ccccc21 [Ic-25, (1S, 3S)—N′-(cyclohexylmethylene)-1-methyl-2,3,4,9-tetrahydropyridino [3,4-b] indol-3-formylhydrazine] | 66.7 | 29.7 | 33.3 | 55 | 19.0 | 5.6 | 9.1 | 100 | 36.3 | 75.8 | 0.0 | 20 | 17.4 | 30.4 | 62.8 | 24.0 | 30.8 | 31.2 | 59.6 | 41.2 | Mosquito larvae Mortality (%) (mosquito larvae; concentration 5 mg/kg): 10%; Bactericidal activity (%) Sclerotinia scleotiorum (Sclerotinia scleotiorum): 21.2%; Relative inhibition rate (%) In vivo protection ([5]; treatment dose 100 μg/mL): 25.7%; Relative inhibition rate (%) In vivo protection ([5]; treatment dose 500 μg/mL): 69.2%; Bactericidal activity (%) Bipolaria maydis (Bipolaria maydis): 36.0%; Armyworm Mortality (%) (armyworms): 45%; Bactericidal activity (%) Cucumber fusarium wilt (cucumber fusarium wilt; 50 mg/kg): 4.5%
